In ChEMBL document CHEMBL1201862, “PubChem BioAssay data set” (2004):
Active and inactive are the calls of the source.

How the values were obtained:
[1] = target: Fructose-bisphosphate aldolase (Mycobacterium tuberculosis, UniProt P9WQA3); test: Fluorescence-based biochemical high throughput dose response assay for inhibitors of the fructose-bisphosphate aldolase (FBA) of M. tuberculosis.; type: functional
[2] = target: Protein S100-A4 (Homo sapiens, UniProt P26447); test: human S100A4 peptide interaction inhibition curves – biochemical, fluorescence polarization, cherry-picked hits, dose response (AID 687001); type: functional
[3] = Luminescence Cell-Based Dose Retest to Confirm Inhibitors of Cancer Stem Cells. [Related pubchem assays (depositor defined):AID2717, AID2721]; type: functional; conditions: Homo sapiens
[4] = system: Cryptococcus neoformans; test: PubChem AID 686997; type: functional, organism-based
[5] = target: T1, Beta-lactamase (Pseudomonas aeruginosa, UniProt Q79MP6); test: […] counterscreen for selective VIM-2 inhibitors: dose response biochemical high throughput screening assay to identify inhibitors of IMP-1 metallo-beta-lactamase.
[6] = target: T1, Beta-lactamase; test: inhibition of IMP-1 beta-lactamase activity – biochemical, epi-absorbance, selectivity assay for VIM-2 inhibitor project, dose response (AID 1920)
[7] = target: T2, Beta-lactamase (Salmonella choleraesuis (strain SC-B67), UniProt Q5J463); test: Epi-absorbance-based counterscreen for selective VIM-2 inhibitors: dose response biochemical high throughput screening assay to identify inhibitors of TEM-1 serine-beta-lactamase.
[8] = target: FAD-linked sulfhydryl oxidase ALR (Homo sapiens, UniProt P55789); test: ALR-catalysed DTT oxidation blockers – biochemical, H2O2 detection, luminescence, cherry-pick, dose response (AID 493248)
[9] = target: T3, Sentrin-specific protease 8 (Homo sapiens, UniProt Q96LD8); type: functional
T3 sequence (Q96LD8 whole entry): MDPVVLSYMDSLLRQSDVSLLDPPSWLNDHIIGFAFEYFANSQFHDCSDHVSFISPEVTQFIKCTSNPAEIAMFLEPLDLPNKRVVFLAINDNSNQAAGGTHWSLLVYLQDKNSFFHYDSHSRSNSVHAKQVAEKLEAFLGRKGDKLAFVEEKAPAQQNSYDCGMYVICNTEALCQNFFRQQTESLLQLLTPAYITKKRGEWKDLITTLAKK

[10] = target: T4, Replicative DNA helicase DnaB (Mycobacterium tuberculosis, UniProt P9WMR3); test: DnaB intein splicing inhibitors, dose response, biochemical, cell-free fluorescence (AID 449749); type: functional
T4 sequence (P9WMR3 whole entry): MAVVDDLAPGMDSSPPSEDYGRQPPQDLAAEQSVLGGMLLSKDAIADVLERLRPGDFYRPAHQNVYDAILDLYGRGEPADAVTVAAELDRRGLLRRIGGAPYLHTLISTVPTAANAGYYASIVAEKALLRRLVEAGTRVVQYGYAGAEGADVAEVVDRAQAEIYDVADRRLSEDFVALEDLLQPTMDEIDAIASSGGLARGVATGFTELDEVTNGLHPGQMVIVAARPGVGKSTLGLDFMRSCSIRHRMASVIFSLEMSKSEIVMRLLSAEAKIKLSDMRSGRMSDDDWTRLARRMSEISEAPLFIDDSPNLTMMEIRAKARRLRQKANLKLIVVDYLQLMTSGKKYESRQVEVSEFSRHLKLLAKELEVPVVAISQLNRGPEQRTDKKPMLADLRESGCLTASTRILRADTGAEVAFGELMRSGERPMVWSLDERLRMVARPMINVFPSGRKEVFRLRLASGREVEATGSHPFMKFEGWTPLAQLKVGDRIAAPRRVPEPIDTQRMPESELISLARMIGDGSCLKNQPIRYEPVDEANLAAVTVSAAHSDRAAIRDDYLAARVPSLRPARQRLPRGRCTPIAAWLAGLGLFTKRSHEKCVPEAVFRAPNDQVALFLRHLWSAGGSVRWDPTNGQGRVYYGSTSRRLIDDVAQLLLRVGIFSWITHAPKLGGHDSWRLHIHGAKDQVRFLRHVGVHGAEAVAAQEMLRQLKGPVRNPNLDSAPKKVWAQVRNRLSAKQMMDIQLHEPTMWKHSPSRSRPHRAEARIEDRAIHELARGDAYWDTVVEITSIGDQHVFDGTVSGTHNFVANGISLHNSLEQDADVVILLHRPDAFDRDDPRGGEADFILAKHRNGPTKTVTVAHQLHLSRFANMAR

[11] = target: T3, Sentrin-specific protease 8; type: functional; remark: listed apart in the source
[12] = target: T5, Protein RecA (Mycobacterium tuberculosis, UniProt P9WHJ3); test: Fluorescence Cell-Free Homogeneous Dose Retest to Identify Inhibitors of RecA-Intein Splicing Activity. [Related pubchem assays (depositor defined):AID2097, AID2223, AID489010, AID492950]; type: functional
T5 sequence (P9WHJ3 whole entry): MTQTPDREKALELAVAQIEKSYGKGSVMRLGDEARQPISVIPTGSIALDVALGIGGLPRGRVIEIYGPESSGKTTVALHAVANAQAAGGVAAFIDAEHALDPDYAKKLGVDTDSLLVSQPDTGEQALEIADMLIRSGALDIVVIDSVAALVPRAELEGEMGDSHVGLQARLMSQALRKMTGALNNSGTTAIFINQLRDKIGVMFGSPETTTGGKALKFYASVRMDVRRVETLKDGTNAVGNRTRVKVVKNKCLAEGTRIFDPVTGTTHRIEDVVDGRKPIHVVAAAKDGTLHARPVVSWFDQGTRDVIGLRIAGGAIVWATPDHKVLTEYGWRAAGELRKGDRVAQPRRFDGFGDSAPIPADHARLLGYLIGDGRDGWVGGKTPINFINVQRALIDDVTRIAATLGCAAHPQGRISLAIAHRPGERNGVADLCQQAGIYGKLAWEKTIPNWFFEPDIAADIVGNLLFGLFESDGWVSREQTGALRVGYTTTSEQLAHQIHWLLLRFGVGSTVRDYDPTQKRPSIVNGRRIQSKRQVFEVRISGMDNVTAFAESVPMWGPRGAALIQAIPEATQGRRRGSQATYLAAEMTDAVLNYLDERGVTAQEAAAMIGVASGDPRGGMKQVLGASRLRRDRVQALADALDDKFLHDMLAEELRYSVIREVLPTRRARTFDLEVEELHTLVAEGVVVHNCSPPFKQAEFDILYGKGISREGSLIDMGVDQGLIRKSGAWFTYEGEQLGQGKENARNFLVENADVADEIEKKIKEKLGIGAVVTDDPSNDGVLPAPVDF

[13] = target: T6, Sentrin-specific protease 1 (Homo sapiens, UniProt Q9P0U3); test: Dose response confirmation of small molecule inhibitors of the catalytic domain of the SUMO protease, SENP1 in a FRET assay.; type: functional; conditions: read-out: IC50_Mean
[14] = target: T7, Zinc finger protein mex-5 (Caenorhabditis elegans, UniProt Q9XUB2); test: potency of MEX-5 RNA-binding blockers – biochemical, C. elegans, fluorescence polarization, dose response (AID 1960)
T7 sequence (Q9XUB2 whole entry): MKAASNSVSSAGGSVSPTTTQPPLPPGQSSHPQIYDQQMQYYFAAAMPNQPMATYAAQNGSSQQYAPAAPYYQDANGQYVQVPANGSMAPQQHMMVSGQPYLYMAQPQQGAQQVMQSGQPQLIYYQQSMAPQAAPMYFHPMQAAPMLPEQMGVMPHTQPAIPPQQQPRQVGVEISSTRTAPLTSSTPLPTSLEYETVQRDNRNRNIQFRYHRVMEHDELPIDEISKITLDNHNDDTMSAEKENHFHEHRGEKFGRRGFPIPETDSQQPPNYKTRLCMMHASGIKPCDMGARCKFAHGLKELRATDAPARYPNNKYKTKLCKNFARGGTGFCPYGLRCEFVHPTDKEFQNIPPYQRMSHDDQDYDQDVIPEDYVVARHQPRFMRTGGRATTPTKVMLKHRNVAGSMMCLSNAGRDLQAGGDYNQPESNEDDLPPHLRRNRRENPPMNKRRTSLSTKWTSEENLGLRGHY

[15] = target: T6, Sentrin-specific protease 1; test: SENP1 catalytic domain blockers, concentration series – biochemical, kinetic FRET, dose response (AID 651697); type: functional; conditions: read-out: IC50_Mean
[16] = target: T8, RNA-binding protein pos-1 (Caenorhabditis elegans, UniProt G5EF15); test: disruptors of C. elegans POS-1 RNA interaction – biochemical, fluorescence polarization, dose response (AID 1964);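 note: purified POS-1 fused to maltose binding protein made in E. coli; potency of compounds blocking POS-1 binding to fluorescent RNA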
T8 sequence (G5EF15 whole entry): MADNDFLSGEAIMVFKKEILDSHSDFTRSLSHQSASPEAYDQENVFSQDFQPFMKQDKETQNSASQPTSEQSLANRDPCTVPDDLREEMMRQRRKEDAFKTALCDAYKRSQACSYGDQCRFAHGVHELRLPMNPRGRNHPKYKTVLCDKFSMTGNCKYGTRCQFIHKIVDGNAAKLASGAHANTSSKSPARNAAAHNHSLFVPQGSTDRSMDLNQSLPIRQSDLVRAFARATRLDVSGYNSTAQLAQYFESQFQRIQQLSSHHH

[17] = target: T1, Beta-lactamase
[18] = target: T2, Beta-lactamase
[19] = Trypanosoma cruzi growth suppression in host cells – NIH3T3 host cells, beta-gal luminescence, confirmation (AID 2044); type: functional, cell-based;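 note: intracellular parasites grown in NIH/3T3 mouse fibroblasts as host cells; luminescent beta-galactosidase reporter signal from transgenic T. cruzi replicating inside host cells; inhibitors lower the luminescence signal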
[20] = NIH3T3 cell viability loss – ATP luminescence, mouse fibroblasts, counter-screen, dose response (AID 2010); type: functional, cell-based;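 note: cells exposed to compound for about 90 hours before reading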
[21] = target: T9, Long-chain-fatty-acid--AMP ligase FadD28 (Mycobacterium tuberculosis, UniProt P9WQ59); test: Fluorescence polarization aasay to screen for inhibitors that compete for the binding of FadD28 to a bisubstrate Measured in Biochemical System Using Plate Reader - 2147-01_Inhibitor_Dose_CherryPick_Activity.; type: functional, Mycobacterium tuberculosis H37Rv
T9 sequence (P9WQ59 whole entry): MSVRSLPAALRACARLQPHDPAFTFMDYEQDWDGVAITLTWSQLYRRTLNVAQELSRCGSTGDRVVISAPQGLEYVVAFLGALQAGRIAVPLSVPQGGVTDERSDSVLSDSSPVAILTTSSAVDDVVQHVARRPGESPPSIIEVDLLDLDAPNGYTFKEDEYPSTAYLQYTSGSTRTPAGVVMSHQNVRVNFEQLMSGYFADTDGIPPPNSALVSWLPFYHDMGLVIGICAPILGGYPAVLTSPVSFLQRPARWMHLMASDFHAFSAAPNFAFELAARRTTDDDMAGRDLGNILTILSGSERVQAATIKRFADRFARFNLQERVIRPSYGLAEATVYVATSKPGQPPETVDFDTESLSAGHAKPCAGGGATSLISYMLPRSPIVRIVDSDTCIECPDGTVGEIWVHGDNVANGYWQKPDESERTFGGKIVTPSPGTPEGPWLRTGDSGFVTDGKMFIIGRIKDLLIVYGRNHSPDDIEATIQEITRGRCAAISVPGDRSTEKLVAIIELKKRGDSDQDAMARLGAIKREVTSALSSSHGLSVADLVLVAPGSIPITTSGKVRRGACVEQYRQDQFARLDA

[22] = target: Botulinum neurotoxin type F (Clostridium botulinum, UniProt P30996); test: High-throughput multiplex microsphere dose response for inhibitors of toxin protease, specifically Botulinum neurotoxin light chain F protease, compounds from Cherry Pick 02.; type: functional; conditions: read-out: EC50_MICROM
[23] = system: Vero; test: viability loss in Vero cells – cell-based, plate reader, cherry-pick samples, cytotoxicity control, dose response (AID 687020); type: functional; conditions: Chlorocebus sabaeus
[24] = activation of miR-122 Renilla sensor silencing – cell-based, Huh7 psiCHECK-miR122, Renilla luciferase, cherry-picked, dose response (AID 651956); type: functional;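 note: huh7 hepatoma cells stably carrying a psiCHECK-2 miR-122 sensor plasmid; renilla luciferase signal reporting endogenous miR-122 activity after 48 h compound exposure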
[25] = general mammalian cell viability loss – activator set, cherry-pick, cytotoxicity control for miR-122 modulator project, dose response (AID 720690); type: functional, cell-based;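 note: HEK293T human cells scored for general mammalian cytotoxicity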
[26] = general mammalian cell viability loss – inhibitor set, cherry-pick, set 2, cytotoxicity control for miR-122 modulator project, dose response (AID 720697); type: functional, cell-based

T1 sequence (Q79MP6 whole entry): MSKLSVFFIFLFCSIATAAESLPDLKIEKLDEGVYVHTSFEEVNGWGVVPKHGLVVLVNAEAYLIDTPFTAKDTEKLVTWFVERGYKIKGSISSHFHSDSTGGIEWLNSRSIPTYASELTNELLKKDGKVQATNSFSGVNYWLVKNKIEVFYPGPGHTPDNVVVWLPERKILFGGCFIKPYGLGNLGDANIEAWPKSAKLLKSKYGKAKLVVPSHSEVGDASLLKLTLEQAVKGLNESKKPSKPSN
T6 sequence (Q9P0U3 whole entry, the tested form may be a part): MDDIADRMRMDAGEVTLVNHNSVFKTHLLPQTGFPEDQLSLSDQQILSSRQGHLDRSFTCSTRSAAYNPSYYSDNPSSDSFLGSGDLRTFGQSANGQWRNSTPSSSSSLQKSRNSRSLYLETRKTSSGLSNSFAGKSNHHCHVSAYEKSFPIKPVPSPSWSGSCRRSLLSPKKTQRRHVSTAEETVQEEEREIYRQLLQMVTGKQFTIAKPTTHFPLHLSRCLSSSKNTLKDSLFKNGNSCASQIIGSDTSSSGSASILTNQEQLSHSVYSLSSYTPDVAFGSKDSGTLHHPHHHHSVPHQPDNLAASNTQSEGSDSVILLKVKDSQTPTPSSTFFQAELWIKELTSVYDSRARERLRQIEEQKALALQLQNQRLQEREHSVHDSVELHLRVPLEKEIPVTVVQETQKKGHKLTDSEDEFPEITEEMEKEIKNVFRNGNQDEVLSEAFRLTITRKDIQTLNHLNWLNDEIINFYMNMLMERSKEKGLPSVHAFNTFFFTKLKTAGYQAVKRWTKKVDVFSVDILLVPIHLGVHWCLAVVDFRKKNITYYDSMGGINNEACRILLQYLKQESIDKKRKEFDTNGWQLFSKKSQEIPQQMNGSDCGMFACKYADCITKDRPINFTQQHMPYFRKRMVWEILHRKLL
T2 sequence (Q5J463 whole entry): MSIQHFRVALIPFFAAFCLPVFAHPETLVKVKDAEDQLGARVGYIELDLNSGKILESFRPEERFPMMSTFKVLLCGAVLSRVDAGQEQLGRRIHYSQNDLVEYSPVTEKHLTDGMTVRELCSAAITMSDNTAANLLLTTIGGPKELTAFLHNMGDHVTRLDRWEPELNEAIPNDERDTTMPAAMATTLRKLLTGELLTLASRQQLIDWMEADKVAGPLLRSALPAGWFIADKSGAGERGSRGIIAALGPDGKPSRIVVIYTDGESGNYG
Sequence of Fructose-bisphosphate aldolase (P9WQA3 whole entry): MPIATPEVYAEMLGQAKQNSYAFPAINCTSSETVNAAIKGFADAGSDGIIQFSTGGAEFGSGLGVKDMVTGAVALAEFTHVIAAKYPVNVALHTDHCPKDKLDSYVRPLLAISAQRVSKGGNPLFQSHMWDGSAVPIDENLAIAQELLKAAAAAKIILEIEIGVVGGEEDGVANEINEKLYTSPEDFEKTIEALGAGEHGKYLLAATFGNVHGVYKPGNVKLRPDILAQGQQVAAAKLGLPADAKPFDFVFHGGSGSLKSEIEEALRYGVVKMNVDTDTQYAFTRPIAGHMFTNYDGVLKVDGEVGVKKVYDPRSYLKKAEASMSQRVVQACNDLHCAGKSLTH
Sequence of Botulinum neurotoxin type F (P30996 1-436 limits assumed): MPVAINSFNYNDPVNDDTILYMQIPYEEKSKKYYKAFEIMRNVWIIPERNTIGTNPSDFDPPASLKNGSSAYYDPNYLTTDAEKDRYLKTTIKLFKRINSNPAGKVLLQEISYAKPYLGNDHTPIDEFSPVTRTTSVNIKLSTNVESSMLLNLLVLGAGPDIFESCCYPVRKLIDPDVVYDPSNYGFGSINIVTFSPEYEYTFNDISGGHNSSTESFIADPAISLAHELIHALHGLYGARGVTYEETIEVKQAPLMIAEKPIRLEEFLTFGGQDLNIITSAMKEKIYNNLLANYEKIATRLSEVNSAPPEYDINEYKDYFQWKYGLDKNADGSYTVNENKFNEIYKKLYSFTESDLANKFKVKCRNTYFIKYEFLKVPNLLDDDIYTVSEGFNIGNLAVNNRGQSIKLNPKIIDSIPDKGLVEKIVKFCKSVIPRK
Sequence of FAD-linked sulfhydryl oxidase ALR (P55789 whole entry): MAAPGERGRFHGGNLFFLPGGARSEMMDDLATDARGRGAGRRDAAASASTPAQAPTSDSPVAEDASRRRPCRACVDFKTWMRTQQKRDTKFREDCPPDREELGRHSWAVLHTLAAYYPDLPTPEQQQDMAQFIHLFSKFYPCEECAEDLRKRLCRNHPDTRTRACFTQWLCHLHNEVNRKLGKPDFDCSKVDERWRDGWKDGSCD
Sequence of Protein S100-A4 (P26447 whole entry): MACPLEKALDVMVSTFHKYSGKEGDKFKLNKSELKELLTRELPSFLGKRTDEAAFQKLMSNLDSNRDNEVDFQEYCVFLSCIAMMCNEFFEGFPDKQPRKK

Cc1ccc2c(C)cc[n+](CCCS(=O)(=O)[O-])c2c1
IC50 [1]: 5.92 µM (active)

COc1cccc2c1C(=O)c1c(O)c3c(c(O)c1C2=O)CC(O)(C(C)=O)CC3OC1CC(O)C(O)C(C)O1 (stereo unspecified)
AC50 [2]: 0.395 µM (active)

COc1ccc(C(=O)NC(=S)Nc2ccccc2N2CCCCC2)cc1[N+](=O)[O-]
AC50 [3]: 0.549 µM (active) | AC50 [4]: > 70 µM (inactive)

COc1cccc(-n2c(S)nnc2CNC(=O)OC(C)(C)C)c1
IC50 [5]: > 59.6 µM (inactive) | IC50 [6]: > 59.6 µM (inactive) | IC50 [7]: > 59.6 µM (inactive) | AC50 [8]: 12.1 µM (active)

COc1cc(C(c2c(C)n[nH]c2O)c2c(C)n[nH]c2O)ccc1OS(=O)(=O)c1ccccc1
IC50 [9]: 45.2 µM (active) | AC50 [10]: 0.402 µM (active) | IC50 [11]: 72.9 µM (inactive) | EC50 [12]: 0.217 µM (active)

COc1ccc2c(c1)c1nc3ccccc3nc1n2CCn1c(=O)oc2ccccc21
IC50 [13]: 20.9 µM (inactive) | EC50 [14]: > 300 µM (inconclusive) | IC50 [15]: 38.6 µM (inactive) | EC50 [16]: > 300 µM (inconclusive)

CCc1cc(=O)oc2cc(C)c(CN3CCCC3)c(O)c12
IC50 [17]: > 59.6 µM (inactive) | IC50 [18]: > 59.6 µM (inactive)

CCc1cccc2c(C(=O)COC(=O)c3ccc(O)cc3)c[nH]c12
EC50 [19]: 2.89 µM (active) | EC50 [20]: 9.37 µM (active) | AC50 [21]: 26.2 µM (active) | EC50 [22]: > 20 µM (inactive)

CCCCNC(=O)O[C@H]1C[C@@H]2CCN3C(=O)CCC[C@H]([C@H]1Cc1ccccc1)[C@H]23
AC50 [23]: 38.6 µM (active)

C[C@@H]1CN([C@H](C)CO)C(=O)c2cc(NC(=O)Nc3cccc4ccccc34)ccc2O[C@@H](C)CCCCO[C@@H]1CN(C)Cc1ccc2c(c1)OCO2
AC50 [24]: 9.62 µM (active) | AC50 [25]: 22 µM (active) | AC50 [26]: < 0.195 µM (active)
